# Assay results published in paper PMC7588595, “Small-molecule active pharmaceutical ingredients of approved cancer therapeutics inhibit human aspartate/asparagine-β-hydroxylase” (Bioorganic & Medicinal Chemistry, 2020).
# Where a name gives a salt, the structure may show the parent alone. Read-outs that look alike come from different tables or passages of the source.
# Target: T1, human AspH (His6-AspH315–758) (Homo sapiens, UniProt Q12797)
# T1 construct: N-Terminally His6-tagged human AspH315–758 (His6-AspH315–758) was produced in Escherichia coli BL21 (DE3) cells; made in house; host or cells: Escherichia coli BL21 (DE3), pET-28a(+) vector
# T1 sequence (Q12797 315-758): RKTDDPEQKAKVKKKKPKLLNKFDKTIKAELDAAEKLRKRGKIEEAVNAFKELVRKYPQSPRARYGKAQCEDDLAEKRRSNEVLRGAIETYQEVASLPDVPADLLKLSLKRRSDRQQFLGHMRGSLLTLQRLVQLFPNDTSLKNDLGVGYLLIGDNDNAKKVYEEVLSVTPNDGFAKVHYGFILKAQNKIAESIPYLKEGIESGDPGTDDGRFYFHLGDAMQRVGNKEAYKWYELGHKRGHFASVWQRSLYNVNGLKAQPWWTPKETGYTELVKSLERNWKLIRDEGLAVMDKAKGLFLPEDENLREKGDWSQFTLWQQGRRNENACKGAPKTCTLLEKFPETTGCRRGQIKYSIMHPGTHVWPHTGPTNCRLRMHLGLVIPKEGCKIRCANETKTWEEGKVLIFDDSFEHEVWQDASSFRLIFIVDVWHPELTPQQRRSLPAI
# Assay: SPE-MS AspH inhibition assay (hFX-CP101-119 substrate hydroxylation)
# Assay type: biochemical
# Settings: for Plate 1 (% conversion): 384-well Plate 1, substrate conversion; for Plate 1-duplicate (% conversion): substrate conversion
# [1] = AspH-inhibitor screening, 384-well Plate 1
# [2] = AspH-inhibitor screening, Plate 1-duplicate
# [3] = 50 nM His6-AspH315–758, 1 μM hFX-CP101–119, 100 μM LAA, 3 μM 2OG, 2 μM FAS, 50 mM HEPES pH 7.5, 20 °C, read-out: IC50
# [4] = 20 μM fixed inhibitor, 50 nM His6-AspH315–758, 1 μM hFX-CP101–119, 100 μM LAA, 3 μM 2OG, 2 μM FAS, 50 mM HEPES pH 7.5, 20 °C, relative to DMSO and 2,4-PDCA controls
# [5] = read-out: IC50 at 10 μM substrate, 10 μM hFX-CP101–119 and 10 μM 2OG instead of 1 μM hFX-CP101–119 and 3 μM 2OG
# [6] = read-out: IC50 at 20 μM Fe(II), 20 μM Fe(II) instead of 2 μM Fe(II)
# [7] = read-out: IC50 at 200 μM 2OG, 200 μM 2OG instead of 3 μM 2OG
Structure (SMILES),Plate 1 (% inhibition) [1] [%],Plate 1 (% conversion) (AspH-inhibitor screening) [%],Plate 1-duplicate (% inhibition) [2] [%],Plate 1-duplicate (% conversion) [2] [%],further results
CCCCCOC(=O)Nc1nc(=O)n([C@@H]2O[C@H](C)[C@@H](O)[C@H]2O)cc1F [Capecitabine],3.89,47.95,10.65,46.76,–
"O=C(O)c1ccnc(C(=O)O)c1 [pyridine-2,4-dicarboxylic acid]",–,–,–,–,"Plate 1 (% inhibition) (100 uM 2,4-PDCA controls, columns 23, 24, Plate 1): 101.14%; Plate 1-duplicate (% inhibition) (100 uM 2,4-PDCA controls, columns 23, 24, Plate 1-duplicate): 99.94%"
CC1(C)CCC(c2ccc(Cl)cc2)=C(CN2CCN(c3ccc(C(=O)NS(=O)(=O)c4ccc(N[C@H](CCN5CCOCC5)CSc5ccccc5)c(S(=O)(=O)C(F)(F)F)c4)cc3)CC2)C1 [ABT-263 (Navitoclax)],90.19,8.10,90.05,7.38,–
COc1ccc(-c2ccc3c(N4CCOC[C@@H]4C)nc(N4CCOC[C@@H]4C)nc3n2)cc1CO [AZD8055],0.34,49.59,4.92,49.60,–
"CCCS(=O)(=O)Nc1ccc(F)c(C(=O)c2c[nH]c3ncc(-c4ccc(Cl)cc4)cc23)c1F [Vemurafenib, reference compound]",–,12.12,–,12.00,IC50 [3]: 12.9 ± 1.6 µM; remaining activity at 20 µM (20 μM fixed inhibitor concentration): ~20%; Hill coefficient of AspH inhibition curves (dose-response curves of SPE-MS AspH inhibition assay): < -2.0; IC50 [5]: 16.9 ± 4.4 µM; IC50 [6]: 10.5 ± 1.9 µM; IC50 [7]: 15.1 ± 0.2 µM
CC(C)C[C@H](NC(=O)[C@H](Cc1ccccc1)NC(=O)c1cnccn1)B(O)O [Bortezomib],6.81,46.61,7.89,48.13,–
S=P(N1CC1)(N1CC1)N1CC1 [Thio-TEPA],17.81,41.53,7.73,48.21,–
C=CC[C@@H]1/C=C(\C)C[C@H](C)C[C@H](OC)[C@H]2O[C@@](O)(C(=O)C(=O)N3CCCC[C@H]3C(=O)O[C@H](/C(C)=C/[C@@H]3CC[C@@H](O)[C@H](OC)C3)[C@H](C)[C@@H](O)CC1=O)[C@H](C)C[C@@H]2OC.O [FK 506_Tacrolimus],-2.23,50.78,-2.68,53.37,–
Cc1cc2c(F)c(Oc3ncnn4cc(OC[C@@H](C)O)c(C)c34)ccc2[nH]1 [Brivanib],6.97,46.53,3.72,50.20,–
O=NN(CCCl)C(=O)NCCCl [Carmustine],1.59,49.02,7.94,48.11,–
CCc1cc2c(cc1N1CCC(N3CCOCC3)CC1)C(C)(C)c1[nH]c3cc(C#N)ccc3c1C2=O [Alectinib],-0.39,49.93,8.49,47.83,–
N.N.[Cl][Pt][Cl] [Cisplatin aq],26.89,37.33,26.45,38.92,–
O=C(O)c1ccc(-c2c[nH]c3ncc(-c4ccccc4)cc23)cc1C1CCCC1 [GSK 650394],57.76,23.08,56.10,24.22,–
CC(C)C(=O)Nc1ccc([N+](=O)[O-])c(C(F)(F)F)c1 [Flutamide],0.33,49.60,10.24,46.97,–
CC(C)(C)NC(=O)[C@H]1CC[C@H]2[C@@H]3CC[C@H]4NC(=O)C=C[C@]4(C)[C@H]3CC[C@]12C [Finasteride],-3.25,51.25,5.03,49.55,–

# Further lines, with some results ahead:
Plate 1 (% inhibition) [1] [%],Plate 1 (% conversion) (AspH-inhibitor screening) [%],Plate 1-duplicate (% inhibition) [2] [%],Plate 1-duplicate (% conversion) [2] [%],Structure (SMILES),further results
40.03,31.27,29.89,37.22,Nc1nccc(-c2c(-c3ccc(F)cc3)ncn2C2CCCCC2)n1 [PF670462],–
2.38,48.65,-0.45,52.27,NS(=O)(=O)OC[C@@H]1C[C@@H](n2ccc3c(N[C@H]4CCc5ccccc54)ncnc32)C[C@@H]1O [MLN4924],–
-16.43,57.34,-26.38,65.13,CO[C@H]1C[C@@H]2CC[C@@H](C)[C@@](O)(O2)C(=O)C(=O)N2CCCC[C@H]2C(=O)O[C@H]([C@H](C)C[C@@H]2CC[C@@H](O)[C@H](OC)C2)CC(=O)[C@H](C)/C=C(\C)[C@@H](O)[C@@H](OC)C(=O)[C@H](C)C[C@H](C)/C=C/C=C/C=C/1C [Rapamycin (sirolimus)],–
35.58,33.32,36.10,34.14,CCC1=C[C@@H]2CN(C1)Cc1c([nH]c3ccccc13)[C@@](C(=O)OC)(c1cc3c(cc1OC)N(C)[C@H]1[C@@](O)(C(=O)OC)[C@H](OC(C)=O)[C@]4(CC)C=CCN5CC[C@]31[C@@H]54)C2 [Vinorelbine tartrate],–
92.77,6.91,87.89,8.45,"O=C(CCCCCCC(=O)Nc1ccc([C@H]2O[C@@H](CSc3nc(-c4ccccc4)c(-c4ccccc4)o3)C[C@@H](c3ccc(CO)cc3)O2)cc1)NO [Tubacin, reference compound]",IC50 [3]: 4.12 ± 0.5 µM; AspH inhibition at 20 μM [4]: 90.3 ± 3.5%; inhibition at 20 µM [4]: > 90%; IC50 [5]: 3.57 ± 0.1 µM; IC50 [6]: 4.91 ± 1.63 µM; IC50 [7]: 5.69 ± 0.7 µM
5.05,47.42,7.45,48.35,CN(C)C(=N)NC(=N)N.Cl [Metformin hydrochloride aq],–
-21.27,59.57,-15.30,59.63,CC(C)C[C@H](NC(=O)[C@@H](COC(C)(C)C)NC(=O)[C@H](Cc1ccc(O)cc1)NC(=O)[C@H](CO)NC(=O)[C@H](Cc1c[nH]c2ccccc12)NC(=O)[C@H](Cc1cnc[nH]1)NC(=O)[C@@H]1CCC(=O)N1)C(=O)N[C@@H](CCCNC(=N)N)C(=O)N1CCC[C@H]1C(=O)NNC(N)=O [Goserelin acetate],–
34.01,34.05,33.73,35.31,C=CC(=O)Nc1cc(Nc2nccc(-c3cn(C)c4ccccc34)n2)c(OC)cc1N(C)CCN(C)C [Osimertinib],–
16.50,42.13,5.73,49.20,CCCC(CCC)C(=O)O [Valproic acid],–
-22.47,60.13,-22.24,63.07,Cn1c(=O)c(F)c(Nc2ccc(I)cc2F)c2c(=O)n(C[C@@H](O)CO)cnc21 [TAK-733],–
3.50,48.13,7.67,48.24,O=C(CCCCCCC(=O)Nc1ccccc1)NO [Vorinostat],–
10.69,44.81,8.07,48.04,OC[C@H]1O[C@@H](n2cnc3c2NC=NC[C@H]3O)C[C@@H]1O [Pentostatin],–
-1.48,50.43,0.58,51.76,CCc1c2c(nc3ccc(OC(=O)N4CCC(N5CCCCC5)CC4)cc13)-c1cc3c(c(=O)n1C2)COC(=O)[C@]3(O)CC.Cl [Irinotecan hydrochloride],–
7.41,46.33,10.69,46.74,S=c1[nH]cnc2nc[nH]c12 [Mercaptopurine],–
